# Counter-ions that a name gives are not always drawn.
# Legend:
# reserpine-induced ptosis = assay: Effect on reserpine-induced ptosis in the mouse; assay type: in vivo, mouse (male ddY); settings: reserpine 2 mg/kg s.c.; for inhibition at 30 mg/kg / inhibition at 100 mg/kg / inhibition at 3 mg/kg / inhibition at 10 mg/kg: Mus musculus, 1.5 h, scored after 90 minutes, read-out: Inhibition rate (antagonism against reserpine-induced ptosis)
# Protocol: (§1) The procedure employed in the tests will be explained concretely below:
# 1. Effect on reserpine-induced ptosis in the mouse
# Male ddY mice (4 weeks of age, body weight 22-27 g) were used, divided into the indicated groups each consisting of 3 or 6 animals. The test compounds were dissolved or suspended in an appropriate solvent (physiological saline, 0.5% CMC or 1% dimethylsulfoxide solution) and were orally administered immediately before treatment with reserpine.
# The vials containing the test solutions were labeled with coded ciphers and the administration was carried out in randomized order.
# The mice were then subcutaneously treated with reserpine at a dose of 2 mg/kg. After 90 minutes, the extent of ptosis was scored. Grading of the score was based on the shape of eye immediately after the mice were taken out from their cages;
# 0: round eye shape, as normal
# The inhibition rate at each dose was calculated from the scores according to the following equation: [formula] The inhibition rate was then scored on the following basis: […]
# Acute toxicity, oral = assay type: in vivo; settings: 300 mg/kg oral in 0.5% CMC, 5 mice, observed 5 days; Compound 36 as its hydrochloride
# Protocol: Each of the Compounds 11, 36 (as its hydrochloride), 53, 76, and 87 dissolved in a 0.5% CMC solution was orally administered to 5 mice at a dose of 300 mg/kg. Observations were made for a period of 5 days.
# [1] = system: spontaneous locomotor activities in mice treated with L-DOPA; assay: Potentiating effect upon spontaneous locomotor activities in mice treated with L-DOPA; assay type: in vivo, mouse (male ddY); settings: for Average locomotor activities (+/- S.E.): 1 hour, MK-486 20 mg/kg i.p. then L-DOPA i.p.
# Protocol: as §1
# 2. Potentiating effect of compounds upon spontaneous locomotor activities in mice treated with L-DOPA
# Male ddY mice (5 weeks old, body weight 30-33 g) were used, after divided into groups each consisting of 5 animals (experiment 1) or 15 animals (experiment 2). The test compounds were prepared as described in the anti-reserpine study, and given orally 20 minutes before administration of MK-486. In control animals, saline was similarly administered. In order to prevent decomposition of L-DOPA at the peripheral site, the mice were intraperitoneally given MK-486 (carbidopa) at a dose of 20 mg/kg and treated intraperitoneally 30 minutes later with L-DOPA. The mice were placed in a cage on a locomotor activity counter (AUTOMEX-11), one-by-one (experiment 1) or 3 mice a cage (experiment 2). Spontaneous locomotor activities were determined for an hour, and the average locomotor activity at each dose was calcultated from 5 counts. The spontaneous locomotor activity in animals treated with the compound was statistically analyzed versus the control group using Student's two-tailed t-test.
# [2] = system: spontaneous locomotor activities in mice treated with L-5-HTP; assay: Potentiating effect upon spontaneous locomotor activities in mice treated with L-5-HTP; assay type: in vivo, mouse (male ddY); settings: 3 mg/kg oral; MK-486 20 mg/kg i.p.; L-5-HTP 100 mg/kg i.p.; 15 mice; 1 hour; saline 2147(+/-334); P <0.01
# Protocol: as §1
# 3. Potentiating effect of compounds upon spontaneous locomotor activities in mice treated with L-5-HTP
# Male ddY mice (4 weeks old, body weight 22-25 g) were used, after divided into groups each consisting of 15 mice. Before administration of MK-486 (20 mg/kg, IP), either the test compound formulation or vehicle (control group) was orally administered. At 30 min after administration of […], L-5-HTP (100 mg/kg IP) was injected. Spontaneous locomotor activities were determined from 15 minutes after L-5-HTP. For this determination, 3 mice were placed in a locomotor counter (Automex) for an hour and the total count noted. Five such apparatuses were used for each dose, in order to eliminate different sensitivities of each apparatus. Thus, 15 mice were used in total for each dose. The average count and SE were calculated from the 5 determinations for each dose, and statistically analyzed versus control group using Student's two-tailed t-test.
# [3] = apparently exerted; cited from earlier work
Structure (SMILES),Score (antagonism against reserpine-induced ptosis) (reserpine-induced ptosis; 30 mg/kg oral),Score (antagonism against reserpine-induced ptosis) (reserpine-induced ptosis; 100 mg/kg oral),inhibition at 30 mg/kg (reserpine-induced ptosis; 30 mg/kg oral) [%],inhibition at 100 mg/kg (reserpine-induced ptosis; 100 mg/kg oral) [%],"Survival (acute toxicity) (Acute toxicity, oral)","Symptoms (acute toxicity) (Acute toxicity, oral)",also measured
"NC(=O)OCC(O)Cn1oc2ccc(Cl)cc2c1=O (stereo not drawn) [Compound 87, 2-(3-Carbamoyloxy-2-hydroxypropyl)-5-chlorobenzoisoxazolin-3-one]",+ (71% or more),+ (71% or more),75,100,all the mice survived,No particular symptoms were detected,
"O=c1cc(-c2ccc(Cl)cc2)on1CC(O)CN1CCOCC1 (stereo not drawn) [Compound 11, 5-p-chlorophenyl-2-(2-hydroxy-3-morpholinopropyl)-4-isoxazolin-3-one]",+ (71% or more),,72,,all the mice survived,No particular symptoms were detected,"Score (antagonism against reserpine-induced ptosis) (reserpine-induced ptosis; 3 mg/kg oral): ± (41% to 70%); Score (antagonism against reserpine-induced ptosis) (reserpine-induced ptosis; 10 mg/kg oral): ± (41% to 70%); inhibition at 3 mg/kg (reserpine-induced ptosis; 3 mg/kg oral): 50%; inhibition at 10 mg/kg (reserpine-induced ptosis; 10 mg/kg oral): 56%; Spontaneous locomotor activity with treatment of L-DOPA (in words) ([1]; 50 mg/kg): significantly increased; Average locomotor activities (+/- S.E.) ([1]; experiment 1: 50 mg/kg oral, 5 mice one-by-one, control 160(+/-128), P <0.05): 3355(+/-878)"
"OC(COc1noc(-c2ccccc2)c1Cl)CN1CCOCC1 (stereo not drawn) [Compound 53, 4-Chloro-3-(2-hydroxy-3-morpholino-propoxy)-5-phenylisoxazole]",± (41% to 70%),,55,,all the mice survived,No particular symptoms were detected,
"OC(COc1cc(-c2ccc(Cl)cc2)on1)CN1CCOCC1 (stereo not drawn) [Compound 76, 5-(p-Chlorophenyl)-3-(2-hydroxy-3-morpholinopropoxy)isoxazole]",,+ (71% or more),,71,all the mice survived,No particular symptoms were detected,
"CN(C)CCCN1c2ccccc2CCc2ccccc21 [Imipramine.HCl, reference compound]",± (41% to 70%),,61,,,,
"O=c1cc(-c2ccc(Cl)cc2)on1C[C@@H](O)CN1CCOCC1 [Compound 22, (S)-5-(p-Chlorophenyl)-2-(2-hydroxy-3-morpholinopropyl)isoxazolin-3-one]",+ (71% or more),,100,,,,"Score (antagonism against reserpine-induced ptosis) (reserpine-induced ptosis; 3 mg/kg oral): ± (41% to 70%); Score (antagonism against reserpine-induced ptosis) (reserpine-induced ptosis; 10 mg/kg oral): ± (41% to 70%); inhibition at 3 mg/kg (reserpine-induced ptosis; 3 mg/kg oral): 56%; inhibition at 10 mg/kg (reserpine-induced ptosis; 10 mg/kg oral): 81%; Average locomotor activities (+/- S.E.) ([1]; experiment 2: 50 mg/kg oral, 15 mice, 3 mice a cage, control 666(+/-137), P <0.001): 6013(+/-629); Average spontaneous locomotor activity (+/- SE) [2]: 3544(+/-318)"
"OC(COc1cc(-c2ccccc2)on1)CN1CCOCC1 (stereo not drawn) [Compound 36, 3-(2-Hydroxy-3-morpholinopropoxy)-5-phenylisoxazole]",,+ (71% or more),,71,all the mice survived,No particular symptoms were detected,
"CN(C)CCCN1c2ccccc2CCc2ccccc21 [imipramine, 10,11-dihydro-N,N-dimethyl-5H-dibenz[b,f]azepine-5-propanamine]",,,,,,,Anticholinergic activity of reference (in words) [3]: anticholinergic activity which is apparently exerted

# — patent publication US5116839A, “Use of isoxazolin-3-one derivatives as antidepressants” (Sankyo Company, Limited, priority 1989, dated 1992)
